Legend:
Test in all cases: relative viability (nuclei count vs DMSO), 5 days (fraction); higher = more cells survive
CUDC-101 = compound: C#Cc1cccc(Nc2ncnc3cc(OC)c(OCCCCCCC(=O)NO)cc23)c1 [CUDC-101]
Outline: (§1)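 For viability, nuclei in each treated well were divided by nuclei in vehicle wells and the median across plates was taken. Lung cancer cell lines in 1536-well plates were pinned with five library-drug doses (not always all listed) spaced by √10, cultured 5 days without medium change, and imaged at 4× after Hoechst staining, with plates passing only at control CV below 25% and at least one doubling.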

[1] = compound: C1=CC=C2C(=C1)N=C(S2)C(C#N)C3=NC(=NC=C3)NCCC4=CN=CC=C4
Outline: as §1

NVP-TAE684 = compound: COc1cc(N2CCC(N3CCN(C)CC3)CC2)ccc1Nc1ncc(Cl)c(Nc2ccccc2S(=O)(=O)C(C)C)n1 [NVP-TAE684]
Outline: as §1

Vandetanib = compound: COc1cc2/c(=N/c3ccc(Br)cc3F)nc[nH]c2cc1OCC1CCN(C)CC1 [Vandetanib]
Outline: as §1

Cell Line | relative viability (CUDC-101; 0.01 µM) | relative viability (CUDC-101; 0.03162 µM) | relative viability (CUDC-101; 0.1 µM) | relative viability (CUDC-101; 0.3162 µM) | relative viability (CUDC-101; 1 µM) | relative viability ([1]; 0.005 µM) | relative viability ([1]; 0.01581 µM) | relative viability ([1]; 0.05 µM) | relative viability ([1]; 0.1581 µM) | relative viability ([1]; 0.5 µM) | relative viability (NVP-TAE684; 0.2 µM) | relative viability (NVP-TAE684; 0.6325 µM) | relative viability (NVP-TAE684; 2 µM) | relative viability (Vandetanib; 0.02 µM) | relative viability (Vandetanib; 0.06325 µM) | relative viability (Vandetanib; 0.2 µM) | relative viability (Vandetanib; 0.6325 µM) | relative viability (Vandetanib; 2 µM)
NCI-H2405 | 1.06 | 0.984 | 1.09 | 1.1 | 0.951 | 0.981 | 0.943 | 0.962 | 0.988 | 0.981 | 1.06 | 0.869 | 0.574 | 0.993 | 0.785 | 1.1 | 1.06 | 0.689
NCI-H2087 | 1.24 | 1.06 | 0.95 | 1.1 | 0.884 | 0.993 | 1.03 | 1.03 | 1.13 | 0.981 | 1.09 |  | 0.989 | 0.934 | 0.938 | 1.02 | 1.15 | 1.14
NCI-H2023 | 1.02 | 0.884 | 0.962 | 1.15 | 0.87 | 0.887 | 1.02 | 0.889 | 1.16 | 0.935 | 1.02 | 0.756 | 0.265 | 0.909 | 0.947 | 1.02 | 0.917 | 0.936
NCI-H3122 | 0.942 | 0.995 | 1.03 | 1.01 | 0.994 | 0.958 | 0.977 | 0.98 | 1.03 | 0.991 | 0.236 | 0.164 | 0.126 | 0.928 | 1 | 1.02 | 0.984 | 0.978
ChaGo-K-1 | 0.923 | 0.965 | 1.02 | 1.06 | 0.787 | 0.984 | 0.929 | 0.99 | 1.05 | 0.939 | 0.98 | 0.878 | 0.843 | 1.01 | 1.01 | 1.01 | 0.998 | 0.984
NCI-H2347 | 1.1 | 1.04 | 1.07 | 1.11 | 0.972 | 1.11 | 1.09 | 0.995 | 1.05 | 1.02 | 0.964 | 0.932 | 0.986 | 1.03 | 0.785 | 1.03 | 1.06 | 0.988
NCI-H460 | 1 | 0.902 | 0.977 | 1.01 | 0.996 | 0.925 | 0.999 | 0.995 | 1.14 | 0.934 | 1.08 | 1.02 |  | 0.964 | 0.992 | 1.02 | 1 | 0.963
HCC-827 | 1.08 | 0.709 | 0.247 | 0.198 | 0.192 | 1.07 | 1.1 | 1.01 | 1.11 | 1.05 | 1.09 | 1.02 | 1.04 | 1.04 | 1.02 | 1.01 | 0.31 | 0.186
HOP-62 | 0.971 | 1.07 | 1.06 | 1 | 0.941 | 0.951 | 1.08 | 1.01 | 1.24 | 1.07 |  | 1 | 1.04 | 0.947 | 1.02 | 1.01 | 1.02 | 1.04
NCI-H1792 | 0.928 | 0.896 | 0.853 | 1.04 | 0.809 |  | 0.747 | 0.924 | 1.2 | 0.693 | 0.844 | 0.708 | 0.594 | 0.878 | 0.829 | 0.974 | 0.858 | 0.874
HCC-15 | 0.969 | 0.989 | 1.01 | 1.11 | 0.897 | 0.96 | 0.989 | 1.03 | 1.12 | 0.919 | 0.913 | 0.973 | 0.808 | 1.01 | 0.919 | 0.982 | 1 | 1.03
NCI-H1755 | 0.998 | 0.987 | 1.02 | 1.04 | 0.98 | 1.03 | 1.15 | 0.985 | 1.09 | 0.99 | 1.04 | 1.04 | 0.892 | 1.02 | 0.952 | 0.975 | 0.973 | 0.96
NCI-H23 | 1.13 | 1 | 1.1 | 1.11 | 0.922 | 0.691 | 0.941 | 0.967 | 1.24 | 1.02 | 0.989 | 0.796 | 0.538 | 1.09 | 0.975 | 0.894 | 0.926 | 0.901
BEN | 1.11 | 0.833 | 1.06 | 0.856 | 0.708 | 0.864 | 0.908 | 0.97 | 1.04 | 1.08 | 0.933 | 0.73 | 0.876 | 0.941 | 0.916 | 0.886 | 0.933 | 0.988
NCI-H1651 | 1.05 | 0.984 | 0.991 | 1.08 | 0.932 | 0.884 | 1.02 | 1.14 | 1.07 | 0.984 | 0.946 | 0.966 | 0.868 | 0.943 | 0.961 | 0.979 | 0.96 | 0.893
NCI-H2126 | 1.04 | 0.957 | 1.03 | 0.94 | 0.81 | 0.912 | 0.977 | 0.946 | 1.05 | 0.864 | 0.991 | 0.959 | 0.684 | 0.96 | 0.91 | 0.965 | 0.906 | 0.903

From the supplement of paper PMC10307832
